Patent US9884031B2, “Use of HDAC inhibitors for treatment of cardiac rhythm disorders” (THE TRUSTEES OF THE UNIVERSITY OF PENNSYLVANIA, priority 2007, dated 2018)
“Also recorded” adds a separate entry of the source. Marks after values point to notes of the source that are not given here.

How the values were obtained:
[1] = tested on: Hop transgenic mice (Hop^Tg); experiment: Invasive hemodynamic measurements; assay type: in vivo, mouse; details: for Effect upon LVEDP, systolic contraction (peak positive dP/dt) and diastolic relaxation (peak negative dP/dt), in words: TSA-Hop^Tg vs Hop^Tg, treatment initiated at 12-14 weeks of age
Experimental: Hop^Tg mice 14-18 weeks old were compared with wild-type littermates and TSA treated Hop^Tg mice. Anesthesia was induced with 3% isoflurane and maintained by ventilation with 0.75% isoflurane. Temperature was maintained at 36-37° C. Intracardiac pressures were recorded using a 1.4 French micromanometer catheter (Micro-Tip SPR-671; Millar Instruments) that was zeroed prior to making measurements on each animal in a saline bath. The catheter was inserted via the right carotid artery to record intracardiac pressures and digitized at 2-kHz using a PowerLab/16 SP A/D converter (ADInstruments Ltd.).
(§1) Trichostatin A 0.6 mg/kg daily in a volume of 0.2 mL was given by intraperitoneal injection for 14 consecutive days upon inducible atrial arrhythmias and atrial structurally remodeling in an engineered mouse model with left ventricular hypertrophy and inducible atrial fibrillation. Transgenic mice over-expressing the homeodomain-only protein (Hop^Tg), which promotes cardiac hypertrophy and interstitial fibrosis, were divided into three groups: control, Hop^Tg mice and Hop^Tg mice treated with trichostatin A.
(§2) Hop^Tg mice had higher left ventricular end-diastolic pressure (LVEDP), and reduced peak systolic contraction and diastolic relaxation compared to WT mice. However, trichostatin A had no effect upon the LVEDP, systolic contraction or diastolic relaxation when treatment was initiated in animals aged 12-14 weeks of age. These parameters were similar between Hop^Tg and TSA-Hop^Tg mice, though still abnormal when compared to WT mice. In addition, the heart weight to tibia length ratio (HW/TL) was higher in Hop^Tg and TSA-Hop^Tg mice compared to WT, but there was no difference in the HW/TL between Hop^Tg and TSA-Hop^Tg mice. *P<0.05 compared to WT; ^†P<0.05 compared to TSA-Hop^Tg.

[2] = tested on: Hop transgenic mice (Hop^Tg); experiment: In-vivo electrophysiology study: inducible arrhythmias by programmed electrical stimulation; design: species or system mouse
Experimental: An in-vivo electrophysiology study was performed in each mouse to assess atrial and ventricular conduction, refractoriness, and arrhythmia inducibility. Surface ECG recordings and complete in vivo electrophysiological studies (EPS) were obtained from Hop^Tg mice (14-18 weeks old), age-matched non-transgenic littermates and TSA-treated Hop^Tg mice. Each mouse was anesthetized with pentobarbital ([…] IP), and multi-lead ECGs were obtained using 26-gauge subcutaneous electrodes. Temperature was maintained at 32-33° C. A jugular vein cutdown was performed and an octapolar 2-French electrode catheter (CIBer mouse-EP; NuMED, Inc) placed in the right atrium and ventricle under electrogram guidance to confirm catheter position. A programmed digital stimulator (DTU-215A, Bloom Associates Ltd) was used to deliver electrical impulses at approximately twice diastolic threshold. […] ECG channels were filtered from 0.5 to 250 Hz and intracardiac electrograms were filtered from 5 to 400 Hz. ECG intervals were measured by two independent observers blinded to the animal's genotype.
The PR, QRS, RR, and QT intervals were measured in 6 surface-limb ECG leads by 2 independent observers, who were both blinded to the animals' genotype. Intracardiac recordings were obtained during identical pacing and programmed electrical stimulation protocols for all mice by experienced investigators.
Trichostatin A 0.6 mg/kg daily in a volume of 0.2 mL was given by intraperitoneal injection for 14 consecutive days prior to cardiac electrical stimulation in Hop transgenic mice (Hop^Tg) compared with wild-type controls (WT).
Ventricular programmed electrical stimulation induced similar numbers and durations of ventricular tachycardia in 3 of 11 Hop^Tg mice compared to 4 of 12 control mice (P=NS).

[3] = tested on: connexin43; experiment: Immunoblot analysis of atrial connexin43; assay type: in vivo, mouse; details: WT, Hop and TSA-Hop mice, FIG. 3B
Experimental: (§3) Adult mouse atrium and ventricle were dissected and homogenized in buffer containing 1% Igepal surfactant, 0.5% deoxycholate sodium, 2% SDS, 5 mmol EDTA (pH=7.4), 1% protease inhibitor cocktail tablet (Roche) with and without phosphatase inhibitor cocktail (Sigma-Aldrich). Samples were cleared of debris by centrifugation at 5000 g for 10 min. and the protein concentration was determined using a BCA protein assay kit (Pierce). Protein samples were run on a 4-12% gradient pre-cast SDS-PAGE gel (Invitrogen), and after electrophoresis were transferred onto PVDF membranes (Millipore) using 0.1% acetic acid/10% methanol as a transfer buffer. Membranes were incubated with primary antibodies in 5% milk and PBS overnight at 4° C. and then washed for 5 min, 4 times with TBS-T solution. […] Results were visualized by enhanced chemiluminescence using a commercially available kit (Western Breeze, Invitrogen) and data were recorded on BioMax-MR film (Kodak, Rochester, N.Y.). Densitometry was determined using the Image-J software package (National Institutes of Health). […]

[4] = tested on: Hop transgenic mice (Hop^Tg); experiment: Masson's trichrome staining for collagen as marker of fibrosis; assay type: in vivo, mouse; details: FIG. 1; for Atrial fibrosis (in words): TSA-treated Hop transgenic mice vs untreated
Experimental: Hearts were excised from, washed in 37° C. Dulbecco's 1×PBS, arrested in 50 mmol/L KCl, and fixed in 4% formalin. Fixed hearts were cut transversely and sectioned serially from ventricular apex to base. Two sections (5 μm each) were retained at the beginning of each 50-μm step. Sections were stained with Masson's trichrome stain for collagen as a marker of fibrosis. Quantification of the proportion of fibrosis in each heart was then performed with scientific imaging software (Image-J, National Institutes of Health)) and high-resolution serial scanning technique. Histological sections from the entire left ventricle and both atrium were used for analysis from three different hearts.
as §1

[5] = tested on: connexin40; experiment: Immunoblot analysis of atrial connexin40; assay type: in vivo, mouse; details: TSA-treated Hop transgenic mice, FIG. 3A
Experimental: as §3

[6] = tested on: activated TGF-β1; experiment: Western blot of atrium: activated TGF-β1; assay type: in vivo, mouse; details: TSA-Hop^Tg mice relative to Hop^Tg, FIG. 2E
Experimental: as §3

[7] = tested on: 3 week-old HopX^Tg mice; details: cited from earlier work
[8] = tested on: histone acetylation; details: TSA 0.6 mg/kg/day, previous studies; cited from earlier work
[9] = tested on: phospho-JNK; experiment: Western blot of atrium: phospho-JNK; assay type: in vivo, mouse; details: between Hop^Tg, TSA-Hop^Tg or control mice, FIG. 2B
Experimental: as §3

[10] = tested on: phospho-ERK1/2; experiment: Western blot of atrium: phospho-ERK1/2; assay type: in vivo, mouse; details: TSA-Hop^Tg mice relative to Hop^Tg, FIG. 2D
Experimental: as §3

[11] = tested on: HopX^Tg mice; experiment: Echocardiographic analysis of ventricular structure and function; assay type: in vivo, mouse
Experimental: To better characterize the effects of TSA upon ventricular structure and function, echocardiographic analysis of HopX^Tg, TSA-HopX^Tg and WT mice was performed. […] However, TSA had no effect upon these parameters as ventricular wall thickness and systolic function were similar between HopX^Tg and TSA-HopX^Tg mice (Table 4), consistent with the hemodynamic analysis of these animals.

[12] = tested on: phospho-p38-MAPK; experiment: Western blot of atrium: phospho-p38-MAPK; assay type: in vivo, mouse; details: between Hop^Tg, TSA-Hop^Tg or control mice, FIG. 2C
Experimental: as §3

[13] = tested on: connexin40 and connexin43; experiment: Distribution of atrial connexins (quantitative confocal immunodetection); assay type: in vivo, mouse; details: TSA-treated Hop^Tg mice
Experimental: Mice were heparizined, anesthetized with pentobarbital […] and hearts excised through a sternotomy. Hearts were mounted on a Langendorf apparatus, perfused with Tyrode's solution (composition as in Ref. 21) at 3.0-3.5 milliliter [ml]/minute [min] at a temperature of 36°-37° C. Hearts were perfused with Ca^2+-free Tyrode's solution for 6 min., followed by 12-15 min. of perfusion with Ca^2+-free Tyrode's solution containing: collagenase B, collagenase D (Roche Chemical Co.) and protease (Fraction IV, Sigma Chemical Co.). […]
The area of immunoreactive signal in discrete spots from isolated atrial myocytes was quantified using laser scanning confocal microscopy. Scanning of single optical slices (<1 μm) by confocal laser scanning microscopy was done on the Leica TCS SP2 system using the spectral detection set for simultaneous fluorescence imaging of Alexa488 and DIC imaging with transmitted light to obtain the cell outline. […] Areas were quantified using the count nuclei application in the Metamorph software package (Molecular Devices). The total area of each atrial myocyte was calculated from the DIC images and the area of the connexin immunoreactive spots was calculated from the Alexa488 fluorescent images.

[14] = tested on: Hop transgenic mice (HopX^Tg); experiment: Morphometric analysis of hearts (heart weight, atrial weight ratios); assay type: in vivo, mouse; details: for Heart weight to tibia length ratio (HW/TL), in words: TSA-Hop^Tg vs Hop^Tg mice
Experimental: as §1, §2

[15] = tested on: models of pressure-overload and angiotensin-induced hypertrophy; details: cited from earlier work
[16] = TSA 0.6 mg/kg daily IP 14 days, Hop^Tg mice, n = 8, mean±SD
[17] = TSA 0.6 mg/kg daily IP 14 days, Hop^Tg mice
[18] = TSA 0.6 mg/kg daily IP 14 days, Hop^Tg mice, n = 10
[19] = TSA 0.6 mg/kg daily IP 14 days, Hop^Tg mice, n = 10, mean±SD
[20] = TSA-treated HopX^Tg mice, n = 4, echocardiography
[21] = TSA 0.6 mg/kg daily IP 14 days, HopX^Tg mice, n = 13, mean±SD

Structure (SMILES): CC(/C=C/C(=O)NO)=C\[C@@H](C)C(=O)c1ccc(N(C)C)cc1 [TSA, Trichostatin A]
- Heart rate [1, 16]: 392 ± 63.5 bpm
- LV end diastolic pressure [1, 16]: 7.2 ± 2.4* mmHg
- LV systolic pressure [1, 16]: 90.6 ± 8.8 mmHg
- Peak negative dP/dt [1, 16]: −2267 ± 1320* mmHg/s
- Peak positive dP/dt [1, 16]: 6465 ± 1613 mmHg/s
- Effect upon LVEDP, systolic contraction (peak positive dP/dt) and diastolic relaxation (peak negative dP/dt), in words [1]: no significant changes
- Effect upon LVEDP, systolic contraction (peak positive dP/dt) and diastolic relaxation (peak negative dP/dt), in words ([1]; listed as trichostatin A): no effect
- Mice with AT [2, 17]: 2/15
- Mice with VT [2, 17]: 2/15
- Episodes AT (atrial tachycardia) [2, 18]: 5
- Episodes VT (ventricular tachycardia) [2, 18]: 4
- AT CL (atrial tachycardia cycle length) [2, 19]: 47.0 ± 7.2 ms
- Duration AT [2, 19]: 0.148 ± 0.110 s
- Duration VT [2, 19]: 0.89 ± 1.07 s
- VT CL (ventricular tachycardia cycle length) [2, 19]: 50.4 ± 8.6 ms
- Mice in which atrial programmed electrical stimulation induced atrial arrhythmia ([2]; TSA-Hop^Tg mice vs 9 of 11 Hop^Tg mice, P<0.01): 2 of 10
- Mice in which ventricular programmed electrical stimulation induced ventricular tachycardia ([2]; TSA-Hop^Tg mice vs Hop^Tg mice, P<0.05): 2 of 10
- Atrial arrhythmia inducibility (in words) ([2]; TSA-treated Hop transgenic mice vs untreated): complete reversal of atrial arrhythmia inducibility
- Duration and episodes of atrial fibrillation (in words) ([2]; TSA-treated Hop^Tg mice vs untreated): reduced
- Atrial connexin43 expression [3]: no changes
- Atrial fibrosis (in words) ([4]; listed as Trichostatin A): reduced
- Atrial fibrosis (in words) ([4]; listed as trichostatin A): complete reversal of atrial fibrosis
- Ventricular interstitial fibrosis (in words) ([4]; three groups incl. TSA-Hop): no obvious ventricular interstitial fibrosis
- Atrial connexin40 expression [5]: normalized
- Activated TGF-β1 protein expression in atrium [6]: further decreased
- Cardiac hypertrophy, in words [7]: partially reduces
- Histone acetylation in the heart, in words [8]: does augment histone acetylation
- Phospho-JNK protein expression in atrium [9]: not different
- Phospho-ERK1/2 protein expression in atrium [10]: increased
- Ventricular wall thickness and systolic function, in words ([11]; TSA-HopX^Tg vs HopX^Tg mice, echocardiography): no effect
- Intra-ventricle Septum [11, 20]: 1.13 ± 0.18 mm
- LV Ejection Fraction [11, 20]: 87.7 ± 7.00 %
- LV Fractional Shortening [11, 20]: 53.9 ± 0.50 %
- Left Ventricle Posterior Wall [11, 20]: 1.10 ± 0.14 mm
- Left ventricular wall dimensions, in words ([11]; older 14-18 week-old HopX^Tg mice treated with TSA): no change
- Phospho-p38-MAPK protein expression in atrium [12]: not different
- Distribution of connexin40 and connexin43 in the atrium [13]: restored
- Heart weight [14, 21]: 192.8 ± 15.5* mg
- Heart weight/body weight [14, 21]: 7.4 ± 0.67* mg/g
- Heart weight to tibia length ratio (HW/TL), in words ([14]; 14-18 week-old): no significant changes; also recorded: no change
- Heart weight to tibia length ratio (HW/TL), in words ([14]; 14-18 week-old, listed as trichostatin A): no difference
- Atrial weight/tibial length ratio (AW/TL), in words ([14]; TSA-treated HopX^Tg vs HopX^Tg mice, 14-18 week-old): no significant changes; also recorded: no change
- Myocardial mechanical function, in words [15]: improve
